Where two headings read alike, the source gives them in different places.
What was measured:
[1] = target: T1, lysyl-tRNA synthetase 1 (LdLysRS-1) (Leishmania donovani, UniProt A0A3Q8IA00); experiment: malachite green aminoacylation assay with recombinant enzyme; thermal shift of ~[…]°C; assay type: biochemical
T1 construct: gene LdCL_150007600; full-length LdLysRS-1 (586 aa), N-terminal His6 tag

[2] = target: T1, lysyl-tRNA synthetase 1 (LdLysRS-1); experiment: as above; assay type: biochemical; remark: listed apart in the source

T1 sequence (A0A3Q8IA00 entry or part of it): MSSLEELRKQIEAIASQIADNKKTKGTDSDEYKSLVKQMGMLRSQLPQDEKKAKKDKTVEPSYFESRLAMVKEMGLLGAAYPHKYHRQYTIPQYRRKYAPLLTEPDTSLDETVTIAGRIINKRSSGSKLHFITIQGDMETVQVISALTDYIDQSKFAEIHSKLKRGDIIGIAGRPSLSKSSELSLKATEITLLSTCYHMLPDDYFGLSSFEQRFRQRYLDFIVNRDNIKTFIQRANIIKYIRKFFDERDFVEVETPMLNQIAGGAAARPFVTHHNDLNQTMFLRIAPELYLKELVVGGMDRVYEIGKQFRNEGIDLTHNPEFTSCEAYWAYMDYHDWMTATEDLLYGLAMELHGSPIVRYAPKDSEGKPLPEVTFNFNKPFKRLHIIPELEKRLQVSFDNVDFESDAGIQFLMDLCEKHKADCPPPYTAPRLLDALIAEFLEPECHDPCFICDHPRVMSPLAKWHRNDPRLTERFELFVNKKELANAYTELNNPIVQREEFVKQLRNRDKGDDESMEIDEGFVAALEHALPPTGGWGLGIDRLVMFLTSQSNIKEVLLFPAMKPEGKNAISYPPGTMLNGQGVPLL

Compound	IC50 [1] [µM]	IC50 [2] [µM]
C[C@@H]1CCC[C@H](C[C@@H]2Cc3cc(O)cc(O)c3C(=O)O2)O1 [3-epi-isocladosporin]	~25.5	–
C[C@H]1CCC[C@H](C[C@H]2Cc3cc(O)cc(O)c3C(=O)O2)O1 [cladosporin]	–	~4.07
